Data from ChEMBL document CHEMBL5726543, “Glucocerebrosidase modulators and uses thereof” (2017).

Molecular target: T1, Lysosomal acid glucosylceramidase (Homo sapiens, UniProt P04062)
T1 sequence (P04062 whole entry): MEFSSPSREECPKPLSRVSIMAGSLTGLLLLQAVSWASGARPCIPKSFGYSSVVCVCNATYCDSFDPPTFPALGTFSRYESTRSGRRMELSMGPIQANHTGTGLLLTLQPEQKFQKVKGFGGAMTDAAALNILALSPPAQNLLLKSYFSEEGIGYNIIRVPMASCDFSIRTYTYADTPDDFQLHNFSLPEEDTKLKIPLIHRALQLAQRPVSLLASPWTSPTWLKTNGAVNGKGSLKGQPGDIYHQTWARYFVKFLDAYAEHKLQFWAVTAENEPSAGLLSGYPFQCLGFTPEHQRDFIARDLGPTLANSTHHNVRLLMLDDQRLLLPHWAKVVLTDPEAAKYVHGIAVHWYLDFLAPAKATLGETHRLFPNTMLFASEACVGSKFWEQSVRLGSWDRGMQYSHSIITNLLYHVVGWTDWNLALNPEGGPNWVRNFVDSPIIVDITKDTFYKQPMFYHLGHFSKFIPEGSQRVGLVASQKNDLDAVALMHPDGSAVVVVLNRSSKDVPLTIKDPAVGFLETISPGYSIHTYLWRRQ
Description: The reaction solution consisted of 25 μL of 6 mM 4-methylumbelliferone-β-D glucopyranoside in 10% DMSO in the same buffer, 12.5 μL of enzyme and 12.5 μL of various concentrations of test compound diluted in buffer. […] The reaction was initiated by addition of enzyme and allowed to proceed for 20 min at 37° C. to assess GCase activity. […] IC50 values were determined by fitting the data to a log [inhibitor concentration] versus response curve using GraphPad Prism.

Compound: CCCC1(CCC)NC[C@@H](O)[C@H](O)[C@H]1CO
- Ki: 1400 nM
